Measured values as given in patent US20150315179A1, “COMPOUNDS AND METHODS OF TREATING NEUROLOGICAL DISORDERS” (Torrey Pines Institute For Molecular Studies, priority 2014, published 2015).

Key:
[1] = tested on: sAPPα release, NT2 cells stably expressing human APP751; test: sAPPα ELISA, NT2 cells expressing APP751; type: cell-based; settings: 24 h
Experimental: (§1) (5). To confirm the effect of THPI-244 on sAPPα levels in a neuronal cell line and by a tertiary assay, we exposed human Neuron-committed Teratocarcinoma cell line (NT2) stably expressing human APP751 to different concentrations of THPI-244 for 24 h and compared with that of Bryostatin, a classical activator of PKC known to stimulate sAPPα release. […] Levels of sAPPα were measured by ELISA using commercially available kit (cat #27734, IBL-America, Minneapolis, Minn., USA). […] Similar biphasic effect of Bryostatin was confirmed for Aβ42 also, measured again in NT2 stable cells by ELISA (cat # KHB3441, Life Technologies, Grand Island, N.Y., USA). Consistent with sAPPα, THPI-244 decreased Aβ42 levels dose-dependently starting from 50 nM (28%, p<0.05) to 2000 nM (64%, p<0.001) (n=4 independent experiments) (FIG. 1.7). Thus THPI-244 increased non-amyloidogenic processing of APP in NT2 cells.

[2] = tested on: sAPPα release, fibroblasts derived from AD patients; test: sAPPα ELISA, AD fibroblasts; type: cell-based, human; settings: 24 h
Experimental: (1). […] Therefore, we first used fibroblasts derived from AD patients (AG06263C, Coriell Cell repository, supported by NINDS/NIH) and exposed to THPI-244 for 24 h and measured sAPPα release by ELISA as done above for NT2 cells. […] We also confirmed dose-dependent effect of THPI-244 on sAPPα levels in human primary neurons transiently transfected with APP751 with Swedish mutation which is trafficked differently from WT APP and releases more sAPPα. Human neurons were grown on specially coated glass coverslips (cat # GG-18-PDL, NeuVitro, Germany). We could reproducibly achieve nearly 30% transfection efficiency using a nanoparticle based transfection reagent called Neuromag (cat # NM150299, OZ Biosciences, France).

[3] = tested on: Aβ42 levels, NT2 cells stably expressing APP751; test: Aβ42 ELISA, NT2 stable cells; type: cell-based, human; settings: ELISA
Experimental: as §1

CCC/C=C/C=C/C(=O)O[C@H]1/C(=C/C(=O)OC)C[C@H]2C[C@H]([C@@H](C)O)OC(=O)C[C@H](O)C[C@@H]3C[C@H](OC(C)=O)C(C)(C)[C@](O)(C[C@@H]4C/C(=C/C(=O)OC)C[C@H](/C=C/C(C)(C)[C@]1(O)O2)O4)O3 [Bryostatin, reference compound]
concentration from which sAPPα increase is significant [1]: 10 nM
effect on sAPPα release [1]: increased sAPPα at low nM concentrations, but then decreased levels dose-dependently
concentration from which sAPPα increase is significant [2]: 10 nM
concentration from which Aβ42 decrease is significant [3]: 10 nM
